{"source": "paper PMC10166914", "about": "“GTN057, a komaroviquinone derivative, induced myeloma cells' death in vivo and inhibited c‐MET tyrosine kinase” (Cancer Medicine, 2023)", "key": {"c-MET": {"target": "T1, c-MET (Homo sapiens, UniProt P08581)", "T1 construct": "endogenous in cells; host or cells: KMS34 multiple myeloma cells", "T1 sequence (P08581 25-1390)": "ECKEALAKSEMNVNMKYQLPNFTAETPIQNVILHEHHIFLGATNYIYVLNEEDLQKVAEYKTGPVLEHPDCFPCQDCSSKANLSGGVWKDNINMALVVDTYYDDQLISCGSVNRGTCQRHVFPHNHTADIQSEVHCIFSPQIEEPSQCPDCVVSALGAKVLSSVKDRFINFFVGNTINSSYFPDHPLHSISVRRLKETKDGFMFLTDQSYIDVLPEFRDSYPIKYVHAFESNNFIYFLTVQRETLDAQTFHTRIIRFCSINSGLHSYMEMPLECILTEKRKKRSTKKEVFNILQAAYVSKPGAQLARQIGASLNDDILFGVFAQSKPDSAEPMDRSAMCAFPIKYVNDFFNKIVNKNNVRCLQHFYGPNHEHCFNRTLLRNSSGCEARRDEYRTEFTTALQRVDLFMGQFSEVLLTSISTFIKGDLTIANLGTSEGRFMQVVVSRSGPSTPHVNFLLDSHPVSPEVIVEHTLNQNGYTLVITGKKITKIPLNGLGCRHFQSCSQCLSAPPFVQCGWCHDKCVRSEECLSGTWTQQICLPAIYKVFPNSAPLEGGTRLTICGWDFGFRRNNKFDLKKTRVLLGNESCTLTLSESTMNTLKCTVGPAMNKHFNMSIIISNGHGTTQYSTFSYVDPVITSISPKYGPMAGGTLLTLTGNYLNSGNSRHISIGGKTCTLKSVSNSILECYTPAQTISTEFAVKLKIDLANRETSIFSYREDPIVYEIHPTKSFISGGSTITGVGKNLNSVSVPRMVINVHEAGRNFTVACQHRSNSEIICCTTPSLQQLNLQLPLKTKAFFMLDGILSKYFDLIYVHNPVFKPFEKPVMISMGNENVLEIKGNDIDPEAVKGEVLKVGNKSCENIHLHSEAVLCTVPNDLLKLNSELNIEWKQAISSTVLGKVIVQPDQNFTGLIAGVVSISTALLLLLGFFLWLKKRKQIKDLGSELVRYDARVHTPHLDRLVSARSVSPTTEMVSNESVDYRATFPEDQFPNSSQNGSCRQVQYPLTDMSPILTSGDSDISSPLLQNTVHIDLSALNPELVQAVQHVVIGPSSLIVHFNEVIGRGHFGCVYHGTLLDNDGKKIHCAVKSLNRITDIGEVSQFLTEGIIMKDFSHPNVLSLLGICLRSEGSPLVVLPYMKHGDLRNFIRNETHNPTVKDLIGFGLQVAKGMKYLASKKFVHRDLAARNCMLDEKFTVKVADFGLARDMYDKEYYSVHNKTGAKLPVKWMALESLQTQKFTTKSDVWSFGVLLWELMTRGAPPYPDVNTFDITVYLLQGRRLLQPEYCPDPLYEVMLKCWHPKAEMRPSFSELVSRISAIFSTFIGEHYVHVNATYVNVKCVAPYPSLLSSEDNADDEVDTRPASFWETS", "test": "Western blot, dose-dependent inhibition of c-MET phosphorylation in KMS34 cells", "assay_type": "cell-based", "details": "Western blot densitometry, read-out: 50% inhibition of the phosphorylation of c-MET", "description": "(§1) MM cells (4 × 10^5 cells/mL) were incubated with 0–20 μM GTN057 for 12 h. The cells were then co‐cultured with 0–50 ng/mL of hepatocyte growth factor (HGF) (PeproTech, London) or 0–20 ng/mL of fibroblast growth factor (FGF)‐2 (PeproTech) with 1 unit/mL of heparin in RPMI containing 4% dialyzed FCS (Gibco) for the KMS11 and KMS34 cells and 10% dialyzed FCS for the KMS21 cells for 15 min at RT (room temperature). A549 cells were co‐cultured with 0–50 ng/mL of epidermal growth factor (EGF) (PeproTech) in Eagle's MEM containing 4% dialyzed FCS for 15 min at RT. […]\n(§2) The protein concentrations were measured using a BCA Protein Assay Kit (Thermo Fisher Scientific). […]\n(§3) Antibodies against phospho‐STAT3 (Tyr705), phospho‐Akt (Ser473), p44/42 MAPK (Erk 1/2), phosphor‐p44/42 MAPK (Thr202/Tyr 204), and phospho‐c‐Met (Tyr1234/1235) (all from Cell Signaling Technology, Danvers, MA) or STAT3, Akt, c‐Met, and β‐actin (all from Santa Cruz Biotechnology, Santa Cruz, CA) or phospho‐c‐Met (Tyr1230/1234/1235) (Biosource, Camarillo, CA for KMS34 cells in Figure 3A) were each used at 1:1000 dilution. […] The Western blotting signals were detected by enhanced ECL chemiluminescence (Amersham). The signal intensity of each band was quantified densitometrically with ImageJ software (ver. 1.48, U.S. National Institutes of Health)."}, "ERK1/2": {"tested_on": "ERK1/2", "test": "Western blot, dose-dependent inhibition of ERK1/2 phosphorylation in KMS34 cells", "assay_type": "cell-based", "details": "Homo sapiens, KMS-34, Western blot densitometry, read-out: 50% inhibition of the phosphorylation of ERK1/2", "description": "as §1, §2, §3"}, "[1]": {"tested_on": "bone marrow cells from mice", "set-up": "method as in PMID 28882484", "details": "cited from earlier work"}, "KMS11 xenografted tumor": {"tested_on": "KMS11 xenografted tumor", "test": "Histopathologic and immunohistochemical examination of xenografts", "assay_type": "in vivo, ICR/SCID mice", "details": "GTN057-treated KMS11 xenografts, immunohistochemistry", "source_text": "Xenografts were excised and fixed with 10% formalin and embedded in paraffin. Five‐μm sliced sections were used for hematoxylin and eosin (H&E) staining. For the immunohistochemical evaluation, we used anti‐human cleaved poly(ADP‐ribose), polymerase (PARP), polyclonal antibody (pAb) (Cell Signaling Technology Japan, Tokyo), anti‐human Ki‐67 monoclonal antibody (mAb) (clone MIB‐1) (Dako Japan, Tokyo), anti‐human cleaved caspase‐3 (Asp175), pAb (Cell Signaling Technology Japan), and anti‐human Factor VIII mAb (Atlas Antibodies)."}, "[2]": {"tested_on": "FGF-2 stimulated ERK1/2, STAT3, AKT1 phosphorylation", "test": "Western blot, FGF-2-stimulated signaling in KMS11 cells", "assay_type": "cell-based, human", "details": "KMS11 cells stimulated by FGF-2", "description": "as §1, §2, §3"}, "MUM24 cells [3]": {"tested_on": "MUM24 cells", "test": "ROS production and growth recovery by anti-oxidants", "assay_type": "cell-based, human", "description": "First, 2 × 10^5 cells/mL of MUM24 cells were incubated with or without 6 mM NAC (N‐acetyl cysteine; Sigma‐Aldrich) or 3 mM GSH (glutathione; Sigma‐Aldrich) for 2 h. Next, 20 μM GTN057 was added and cultured for an additional 72 h. Cells were incubated with 1 μM CM‐H2DCFDA (i.e., 5‐(and‐6)‐chloromethyl‐2′, 7′‐dichlorodihydrofluorescein diacetate) for 30 min. For the evaluation of ROS production, the cells were stained with CM‐H2DCFDA and analyzed using a FACS (fluorescence‐activated cell sorting) system (LSR II, BD Biosciences). For the assessment of growth recovery by NAC or GSH, 2 × 10^5 cells/mL of MUM24 cells were also treated with 20 μM GTN057 in the presence or absence of 6 mM NAC or 3 mM GSH as described above. We conducted a trypan blue exclusion test to determine the numbers of viable cells."}, "KMM1 cells": {"tested_on": "KMM1 cells", "test": "Growth inhibition, trypan blue exclusion assay", "assay_type": "cell-based", "details": "Homo sapiens, KMM-1, KMM1, 48 h", "description": "(§4) For the trypan blue exclusion assay, 2 × 10^5 cells/mL of each MM cell line were incubated with various concentrations of GTN057 (0–20 μM). The cells were cultured in triplicate plates, and viable cells were evaluated by a trypan blue exclusion assay (Trypan Blue Stain 0.4%, Gibco) using an automatic cell counter (TC20™, Bio‐Rad)."}, "KMS21 cells": {"tested_on": "KMS21 cells", "test": "Growth inhibition, trypan blue exclusion assay", "assay_type": "cell-based", "details": "Homo sapiens, KMS21, 48 h", "description": "as §4"}, "KMS34 cells": {"tested_on": "KMS34 cells", "test": "Growth inhibition, trypan blue exclusion assay", "assay_type": "cell-based", "details": "Homo sapiens, KMS-34, KMS34, 48 h", "description": "as §4"}, "KMS27 cells": {"tested_on": "KMS27 cells", "test": "Growth inhibition, trypan blue exclusion assay", "assay_type": "cell-based", "details": "Homo sapiens, KMS-27, KMS27, 48 h", "description": "as §4"}, "KMS28 cells": {"tested_on": "KMS28 cells", "test": "Growth inhibition, trypan blue exclusion assay", "assay_type": "cell-based", "details": "Homo sapiens, KMS28, 48 h", "description": "as §4"}, "KMS26 cells": {"tested_on": "KMS26 cells", "test": "Growth inhibition, trypan blue exclusion assay", "assay_type": "cell-based", "details": "Homo sapiens, KMS-26, KMS26, 48 h", "description": "as §4"}, "KMS11 cells": {"tested_on": "KMS11 cells", "test": "Growth inhibition, trypan blue exclusion assay", "assay_type": "cell-based", "details": "Homo sapiens, KMS-11, KMS11, 48 h", "description": "as §4"}, "MUM24 cells [4]": {"tested_on": "MUM24 cells", "test": "Growth inhibition, trypan blue exclusion assay", "assay_type": "cell-based", "details": "Homo sapiens, MUM24, 48 h", "description": "as §4"}}}
{"smiles": "COc1c(OC(C)=O)c2c(c(O)c1C(C)C)C(=O)CC1C(C)(C)CCC[C@]1(O)C2", "note": "(stereo partly drawn) [GTN057]", "values": [{"measurement": "IC50", "setting": "c-MET", "value": 35.9, "unit": "µM"}, {"measurement": "IC50", "setting": "ERK1/2", "value": 21.3, "unit": "µM"}, {"measurement": "Colony formation of bone marrow cells", "setting": "[1]; bone marrow cells from mice", "value": "did not inhibit the colony formation"}, {"measurement": "Hematological toxicity in vitro", "setting": "[1]; colony assay", "value": "negligible hematological toxicity"}, {"measurement": "Number of Factor VIII-positive vessel cells", "setting": "KMS11 xenografted tumor", "value": "decreased"}, {"measurement": "Numbers of cleaved-caspase-3-positive and PARP-positive cells", "setting": "KMS11 xenografted tumor", "value": "significantly increased"}, {"measurement": "Staining for cell proliferation marker MIB-1/Ki67", "setting": "KMS11 xenografted tumor", "value": "weakened"}, {"measurement": "ERK1/2, STAT3, AKT1 phosphorylation levels", "setting": "[2]", "value": "did not clearly change"}, {"measurement": "Abrogation of growth inhibition and apoptosis by anti-oxidants", "setting": "MUM24 cells [3]; 20 μM GTN057 with 6 mM NAC or 3 mM GSH", "value": "not significantly abrogated"}, {"measurement": "ROS production", "setting": "MUM24 cells [3]; 20 μM, MM cells, CM-H2DCFDA, FACS", "value": "produced ROS"}, {"measurement": "IC50", "setting": "KMM1 cells", "value": 20.5, "unit": "µM"}, {"measurement": "IC50", "setting": "KMS21 cells", "value": 10.1, "unit": "µM"}, {"measurement": "IC50", "setting": "KMS34 cells", "value": 20.1, "unit": "µM"}, {"measurement": "IC50", "setting": "KMS27 cells", "value": 7.93, "unit": "µM"}, {"measurement": "IC50", "setting": "KMS28 cells", "value": 24, "unit": "µM"}, {"measurement": "IC50", "setting": "KMS26 cells", "value": 9.91, "unit": "µM"}, {"measurement": "IC50", "setting": "KMS11 cells", "value": 11.2, "unit": "µM"}, {"measurement": "IC50", "setting": "MUM24 cells [4]", "value": 5.29, "unit": "µM"}]}
